Key:
[1] = tested on: A-549 (human non-small cell lung carcinoma); assay: Cell photosensitization, 748 nm diode laser, resazurin; assay type: cell-based
[2] = n-octanol:water partition coefficient (shake-flask); assay type: physicochemical
Experimental: The n-octanol:water partition coefficients (CP) were measured using a minor modification of the shake-flask method described by some of us in the literature. The modification concerned the excitation of the absorption band ca 500 nm and the collection of the fluorescence in the red/IR region.

[3] = tested on: PC-3 (human prostate carcinoma); assay: Cell photosensitization, 748 nm diode laser, resazurin; assay type: cell-based; settings: 6 J/cm^2 diode laser irradiation at 28.5 mW
[4] = Photobleaching under 748 nm diode laser irradiation; assay type: physicochemical; settings: PBS:methanol; 100 mW laser irradiation at 748 nm
From the text: The irradiation of bacteriochlorins in the photobleaching experiments employed the 748 nm Lynx diode laser. For animal studies we employed a costumer-made Hamamatsu diode laser, type LA0873. S/N M070301, which delivered 140 mW at 748 nm. This diode laser was controlled by a ThorLabs 500 mA ACC/APC Laser Diode Controller and in-house electronics. The laser energies of this and the other higher-energy lasers employed in this work were regularly checked with an Ophir model AN/2E laser power meter.
Photobleaching experiments were conducted in PBS. PBS:methanol (50:50) and methanol solutions. The solutions were irradiated in a cuvette with an optical path of 1 cm and the Lynx diode laser. The initial absorption of the solutions was ca. 0.8. The mechanism of photobleaching was assessed with the irradiation of the sensitizer using the Hamamatsu diode laser at 80 mW. The sensitizer was irradiated in PBS and in the presence of ascorbic acid or azide.
The chemical stability of the compounds was studied exposing them to light, air, and pH changes. The most significant degradation occurs for aerated solutions irradiated by light of the appropriate wavelength. In such circumstances the photobleaching of the compounds follows a first-order rate and is proportional to the energy of the incident laser light. In general, it was also observed that the photobleaching rate increases with the amount of water present in the solution. Bennett reported the photoconversion of Foscan® (m-THPC) and of the analogous bacteriochlorin (m-THPB) in PBS:methanol (50:50). Scherz reported the photoconversion of Tookad® in acetone and Triton-X:PBS [3]. For the purpose of comparing the photostability of Luzitins with that of Foscan® and Tookad®, we present in Table 2 the half-lives (t1/2) of representative drugs described herein, together with those of Foscan and Tookad® normalized for a laser power of 100 mW.
Luzitin-FMet was dissolved in PBS:methanol (2:3), transferred to a 1 cm quartz cell and its absorption spectrum was registered, FIG. 6. The quartz cell was then placed in the beam of the 748 nm Lynx diode laser, previously unfocused to have a beam diameter coincident with the window of the quartz cell. The laser power measured under these conditions was 28.8 mW. Every 5 minutes the irradiation was interrupted and a new absorption spectrum was registered. This procedure was followed for 65 minutes. The photobleaching follows the kinetics of a first-order reaction in the time window of the experiment. […] Whereas the bacteriochlorin peak at 743 nm is reduced from an absorbance of 1.128 to 0.337, the absorption of the chlorin only increases from 0.114 to 0.151. Taking into consideration the molar absorption coefficients of the compounds at these wavelengths, it is clear that whereas 70% of the bacteriochlorin is destroyed during the irradiation, only a few percent of chlorin are formed.
The half-lives of other bacteriochlorins normalized 100 mW laser irradiation at 748 nm are presented in […], together with the literature data for the photodegradation of Foscan® and Tookad® normalized for the same light intensity. It was also observed that the half-live to Luzitin-Cl is increased by a factor of 30 when the PBS solution of the photosensitizer is saturated with Argon, which reduces the oxygen concentration in the solution.

[5] = tested on: CT26 (murine colon carcinoma); assay: Cell photosensitization, 748 nm diode laser, resazurin; assay type: cell-based, mouse; settings: 6 J/cm^2 diode laser irradiation at 28.5 mW
[6] = tested on: A-549 (human non-small cell lung cancer); assay: Cytotoxicity in the dark, resazurin assay; assay type: cell-based; parameters: unit not given here; settings: A-549, dark
Experimental: The cell lines employed in laser irradiation were the HT-29 (human colon carcinoma), PC-3 (human prostate carcinoma), SW2 (human small cell lung cancer), A-549 (human non-small cell lung cancer). S91/I3 (mouse melanoma) and CT26 (mouse colon carcinoma). They were used both for cytotoxicity and photocytotoxicity experiments. PC-3. SW2 and S91113 cells were cultured in RPMI-1640 medium (Sigma-Aldrich, Steinheim, Germany) and HT-29, A-549 and CT26 cells were cultured in Dulbecco's Modified Eagle Medium (DMEM) (Cambrex Bioscience, Verviers, Belgium). […] For the in vitro studies, cells at 85-90% confluence, were detached with Trypsin-Versene-EDTA solution (Cambrex Bioscience, Verviers, Belgium), counted and seeded in flat-bottom 96-well plates at the desired densities.
Cell viability assay. In the end of the experiences cell viability was evaluated by the resazurin reduction assay. […] The absorbance values of each well were measured at 540 nm and 630 nm using a microplate reader Multiskan Ex (Thermo-Electron Corporation, Vartaa, Finland).
Cytotoxicity. […] After the incubation the cell viability was evaluated. […] Cytotoxicity was quantified by expressing cell death relatively to untreated cells (% of control cells). […]

[7] = Absorption spectra (λmax, molar absorption coefficient); assay type: physicochemical; settings: ethanol solutions
Experimental: Absorption spectra were recorded on a Shimadzu UV-2100 spectrophotometer or with a Carry 50 Biospectrophotometer (Varian, Mulgrave, USA). Fluorescence spectra were measured with a Spex Fluorolog 3 spectrophotometer, with correction for the wavelength dependence system (RCA C31034 photomultiplier), or with a PerkinElmer LS 50 spectrofluorimeter. Transient absorption spectra were measured with an Applied Photophysics LKS 60 nanosecond laser flash photolysis kinetic spectrometer, using the third harmonic of a Spectra-Physics Quanta Ray GCR 130-01 Nd/YAG laser for excitation, a Hamamatsu 1P28 photomultiplier and a Hewlett-Packard Infinium oscilloscope (1 GS/s). Flash photolysis measurements were made in the presence of air and in argon saturated solutions. Photoacoustic calorimetry employed the same Nd/YAG laser, a home-made front-face photoacoustic cell with a 2.25 MHz Panametrics transducer (model 5676) and a Tektronix DSA 601 transient recorder. Room-temperature singlet-oxygen phosphorescence was measured at 1270 nm with a Hamamatsu R5509-42 photomultiplier, cooled to 193 K in a liquid nitrogen chamber (Products for Research model PC176TSCE005), following laser excitation of aerated solutions at 355 nm, using an adapted Applied Photophysics spectrometer. Singlet oxygen emission at 1270 nm was also monitored with a liquid nitrogen-cooled germanium detector (North Coast) coupled to a Tectronix Digitizing scope (TDS 520B), following sample excitation with 5 ns laser pulses of the third harmonic (355 nm) generated by a Q-switched Nd:YAG laser (Continuum Surelite II).
This is indicative of little aggregation between the molecules, which exist mostly as monomers at these concentrations in the solvents studied. Table 1 presents typical red and infrared molar absorption coefficients (εmax) and wavelength maxima. The same table also presents representative fluorescence quantum yields (ΦF) of Luzitins. The fluorescence quantum yields decrease of these molecules decrease in the presence of chlorine substituents, a fingerprint of the heavy atom effect expected for such molecules.

CNS(=O)(=O)c1ccc(F)c(-c2c3nc(c(-c4c(F)ccc(S(=O)(=O)NC)c4F)c4ccc([nH]4)c(-c4c(F)ccc(S(=O)(=O)NC)c4F)c4nc(c(-c5c(F)ccc(S(=O)(=O)NC)c5F)c5ccc2[nH]5)CC4)CC3)c1F [Luzitin-F2Met, 5,10,15,20-tetrakis(2,6-fluoro-3-N-methylsulfamoylphenyl)bacteriochlorin]
cell kill ([1]; 0.5 μM, laser light dose 6 J/cm^2, incubation 18 hours): 100% | concentration of sensitizer required to kill 90% of cells (LD90) ([1]; 6 J/cm^2 diode laser irradiation at 28.5 mW): 0.5 µM | log KOW (n-octanol:water partition coefficient) [2]: 2.7 | concentration of sensitizer required to kill 90% of cells (LD90) [3]: 0.5 µM | t1/2 (photobleaching half-life) [4]: 6,480 sec | concentration of sensitizer required to kill 90% of cells (LD90) [5]: 1.0 µM | highest concentration that causes relatively no effect in viability in the dark [6]: 50 | λmax [7]: 742.5 nm | εmax ([7]; corrected for the chlorin content): 78,000^d) M^−1 cm^−1

From US9670217B2, “Process for preparing chlorins and their pharmaceutical uses” (UNIVERSIDADE DE COIMBRA, priority 2008, dated 2017)
